In article PMC8312610, “F4, a collagen XIX-derived peptide, inhibits tumor angiogenesis through αvβ3 and α5β1 integrin interaction” (Cell Adhesion & Migration, 2021):
Positions of bridges follow the written chain, without caps; N, C: chain ends. No end group written: not given here.

Key:
α5β1 integrin [1] = test: Solid phase assay, direct binding to α5β1; parameters: species or system human; settings: solid phase assays
Text: Figure 5. F4 directly binds to αvβ3 and α5β1 integrins. Direct interaction between αvβ3 or α5β1 integrin and F4 was studied using solid phase assays as described in the material and method section. The F4 peptide was biotinylated to allow its detection using the streptavidin-peroxidase complex. Different conditions were used. (a-b) The amounts of coated αvβ3 (a) or α5β1 integrin (b) were increased while biotinylated F4 peptide was kept constant. (c-d) The concentration of biotinylated F4 peptide was increased while coated amounts of αvβ3 (c) or α5β1 (d) integrins were kept constant. (e-f) Competitive assays were performed using increasing concentrations of F4 peptide while biotinylated-F4 peptide and αvβ3 (e) or α5β1 (f) integrins were kept constant. […]
Wells of a 96-well plate were coated with α5β1 (ref. 3230-A5-050, R&D systems) and/or αvβ3 integrin (ref. 3050-AV-050, R&D systems) at different concentrations ranging from 26 × 10^−7 mol/L to 0.1 × 10^−7 mol/L (100 μL per well in PBS). […] The intensity of the yellow coloration was measured at 450 nm with an LB940 spectrophotometer (Berthold Technologies).
The optimum integrin amount for the coating was determined using the above protocol and the optimum ligand concentration was sought using different dilutions of the biotinylated-F4 peptide ranging from 20.8 × 10^−4 to 0.16 × 10^−4 mol/L.

αvβ3 integrin = test: F4 affinity chromatography of HUVEC extracts with western blot; format: binding, human; settings: HUVEC protein extract, F4 peptide-Sepharose (F4 reduced with DTT), NaCl elution 0.15, 0.6 and 1.0 M, +4°C, N = 2
Experimental: (§1) HUVEC were cultured as previously described in a Nunclon® 150 cm^2 flask. At 80%-confluence, cells were washed with HBSS and scrapped in lysis buffer (RIPA buffer, Sigma, ref R0278-50ML) supplemented with 1% (v/v) Halt Protease Inhibitor Cocktail (ThermoFisher, ref 78430). Cell lysates were incubated for 30 min at +4°C and vortexed every 5 min. Unsoluble debris were pelleted by centrifugation at 10,000 g for 10 min at +4°C. Bio-Rad Protein Assay (Bio-Rad, Marne-La-Coquette, France) was used to determine the protein concentrations according to the manufacturer’s instructions. […] HUVEC protein extracts were chromatographed at +4°C. Unbound protein were removed with 30 mL of washing buffer (10 mM Tris, 1 mM CaCl2, 1 mM MgCl2, pH 7.6, 1% (v/v) Protease Inhibitor Cocktail and 0.1% (w/v) octylglucoside (Sigma, ref O8001-100 MG)) according to the manufacturer’s instructions. Proteins bound to the affinity column were then eluted with elution buffer (10 mM Tris, pH 7.6, 1% (w/v) PIC and 0.1% (w/v) octylglucoside) supplemented with increasing concentrations of NaCl (0.15, 0.6 and 1 M). Absorbance was read at 280 nm to check protein elution and fractions corresponding to the different NaCl concentrations were pooled and concentrated using NanoSep Centrifugal Devices (cutoff 10 kDa; Pall). […]

α5β1 integrin [2] = test: as above; format: binding, human; settings: HUVEC protein extract, F4 peptide-Sepharose (F4 reduced with DTT), NaCl elution 0.15, 0.6 and 1.0 M, +4°C, N = 2
Experimental: as §1

## CNPEDCLYPVSHAHQR (disulfide 1-6 (inferred)) [F4, collagen XIX-derived peptide, released by plasmin from type XIX collagen]
α5β1 integrin [1]
  direct binding to α5β1 (conclusion): binds to both αvβ3 and α5β1 integrins in a direct manner
αvβ3 integrin
  αv and β3 subunits bound to F4 column (western blot): two bands which matched the 150 and 110 kDa bands of the recombinant αvβ3 integrin
α5β1 integrin [2]
  α5 and β1 subunits bound to F4 column (western blot): two bands in 0.6 M NaCl eluted sample which matched the 140 and 120 kDa bands of the recombinant α5β1 integrin
